In patent publication US20230391781A1, “MALT1 MODULATORS AND USES THEREOF” (Rheos Medicines, Inc., priority 2020, published 2023):
Structures can show the parent of a compound that is named as a salt. Where two headings read alike, the source gives them in different places.

Assays:
[1] = tested on: IL-2 in Jurkat (ATCC, clone E6.1) cells stimulated with anti-CD3/28/2; experiment: Jurkat IL-2 Assay; format: cell-based; settings: Homo sapiens
Procedure: Inhibition was determined in a cell-based assay using Jurkat (ATCC, clone E6.1), an immortalized T-cell line, exposed to a dose response of compound and assessed for viability, and Il-2 inhibition by ELISA. Cells were cultured in RPMI/10% FBS (Invitrogen 11875093, Atlanta Biologicals S12450H), maintained below 3E6/mL and only used in assays while below passage 25. Compounds were stamped by ECHO onto 384w plates (PerkinElmer Culturplate, 6007680). The cells were plated in fresh media on top of compound and incubated for 30 minutes before stimulation with soluble anti-CD3/28/2 (Stemcell, 10970) for 24 hours. Supernatant was collected and assessed for Il-2 (MSD, 384w, L21SA-1). To assess viability of cells treated with compound, cells were lysed with CTG reagent (Promega, G7570), and measured by luminometer. […] IC50s calculated using 4-parameter fit in GraphPad Prism.
In this table, “A” indicates IC50 of less than 0.1 μM; “B” indicates IC50 from 0.1 μM up to 1 μM; and “C” indicates IC50 of greater than 1 μM. “N/A” indicates not tested. For a compound that was tested in more than one experiment, the result shown represents the mean value.

[2] = biological target: full length MALT1 (Homo sapiens (Human), UniProt Q9UDY8); experiment: MALT1 Biochemical Assay; settings: 15 nM enzyme, 30 μM peptide substrate Ac-Leu-Arg-Ser-Arg-Rh110-dPro, 30 min pre-incubation, 60 min reaction; mean value if tested more than once
full length MALT1, sequence (Q9UDY8 whole entry): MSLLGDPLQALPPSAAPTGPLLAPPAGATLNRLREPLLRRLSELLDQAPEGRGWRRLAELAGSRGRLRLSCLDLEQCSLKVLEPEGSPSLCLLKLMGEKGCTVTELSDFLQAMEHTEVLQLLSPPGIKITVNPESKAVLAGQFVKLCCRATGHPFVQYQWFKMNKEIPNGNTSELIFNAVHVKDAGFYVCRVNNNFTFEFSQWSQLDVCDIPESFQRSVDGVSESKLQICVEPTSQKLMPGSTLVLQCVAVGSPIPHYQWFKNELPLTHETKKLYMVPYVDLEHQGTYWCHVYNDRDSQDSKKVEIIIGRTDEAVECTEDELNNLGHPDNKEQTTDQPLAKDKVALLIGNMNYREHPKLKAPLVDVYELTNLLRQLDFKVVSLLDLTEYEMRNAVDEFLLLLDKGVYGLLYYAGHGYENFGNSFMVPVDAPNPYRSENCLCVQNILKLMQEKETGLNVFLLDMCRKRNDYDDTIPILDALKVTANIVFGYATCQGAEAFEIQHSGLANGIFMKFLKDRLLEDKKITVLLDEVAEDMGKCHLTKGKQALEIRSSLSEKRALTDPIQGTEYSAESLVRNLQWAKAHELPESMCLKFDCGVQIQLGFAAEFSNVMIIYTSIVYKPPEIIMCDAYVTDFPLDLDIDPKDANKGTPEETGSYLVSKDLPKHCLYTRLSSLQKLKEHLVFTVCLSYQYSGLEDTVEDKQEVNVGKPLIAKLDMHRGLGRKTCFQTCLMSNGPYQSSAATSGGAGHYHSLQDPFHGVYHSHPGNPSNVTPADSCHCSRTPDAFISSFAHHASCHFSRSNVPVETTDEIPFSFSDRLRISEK
Procedure: Inhibitor potency was evaluated by measuring enzymatic activity of full length MALT1 at varying concentrations of compound. The enzymatic assay consists of a single substrate reaction that monitors the release of a fluorescent dye upon cleavage of the peptide substrate. […] The assay buffer consists of 50 mM Hepes, pH 7.5, 0.8 M sodium citrate, 1 mM DTT, 0.004% tween-20, and 0.005% bovine serum albumin (BSA). […] The reaction was quenched after 60 minutes with the addition of iodoacetate at a final concentration of 10 mM. Total fluorescence was measured using an Envision (PerkinElmer) with fluorescence excitation at 485 nm and emission at […].
For potency determination, 1 μL of serially diluted compound (in 100% DMSO) was pre-incubated with 40 μL of enzyme for 30 minutes. The reaction was initiated with the addition of 10 μL of peptide substrate. The relative fluorescence units were transformed to percent inhibition by using 0% and 100% inhibition controls as reference. […] IC50 values were calculated by fitting the concentration-response curves to a four-parameter logistic equation in GraphPad Prism.

[3] = IL-2 inhibition, Jurkat cells, 30 min compound then anti-CD3/28/2 stimulation for 24 hours, mean value if tested more than once, read-out: IC50

SMILES	IC50 [1, 3]	IC50 [2]	IC50 ([1]; Jurkat)
CO[C@@H](C)c1c(Nc2ccc(C(C)N(C)C(=O)C3CC3)cc2)cnc2nc(Cl)nn12 (stereo partly drawn) [Compound 1.23, N-{1-[4-({2-chloro-7-[(1S)-1-methoxyethyl]-[1,2,4]triazolo[1,5-a]pyrimidin-6-yl}amino)phenyl]ethyl}-N-methylcyclopropanecarboxamide]	> 1 µM	> 1 µM	
CO[C@@H](C)c1c(Nc2ccc(C(C)N(C)C(C)=O)cc2)cnc2nc(Cl)nn12 (stereo partly drawn) [Compound 1.24, N-{1-[4-({2-chloro-7-[(1S)-1-methoxyethyl]-[1,2,4]triazolo[1,5-a]pyrimidin-6-yl}amino)phenyl]ethyl}-N-methylacetamide]	> 1 µM	> 1 µM	
CO[C@@H](C)c1c(Nc2ccc(C(N(C)C(C)=O)C(F)(F)F)cc2)cnc2nc(Cl)nn12 (stereo partly drawn) [Compound 1.25, N-{1-[4-({2-chloro-7-[(1S)-1-methoxyethyl]-[1,2,4]triazolo[1,5-a]pyrimidin-6-yl}amino)phenyl]-2,2,2-trifluoroethyl}-N-methylacetamide]	> 1 µM	0.1 to 1 µM	
CO[C@@H](C)c1c(Nc2ccc([C@@H](N(C)C(=O)C3CCS(=O)(=O)CC3)C(F)(F)F)cc2)cnc2nc(Cl)nn12 [Compound 1.26, N-[(1R)-1-[4-({2-chloro-7-[(1S)-1-methoxyethyl]-[1,2,4]triazolo[1,5-a]pyrimidin-6-yl}amino)phenyl]-2,2,2-trifluoroethyl]-N-methyl-1,1-dioxo-1λ^6-thiane-4-carboxamide]	> 1 µM	> 1 µM	
CO[C@H](C)c1c(Nc2ccc([C@@H](N(C)C(=O)C3CCS(=O)(=O)CC3)C(F)(F)F)cc2)cnc2nc(Cl)nn12 [Compound 1.27, N-[(1R)-1-[4-({2-chloro-7-[(1R)-1-methoxyethyl]-[1,2,4]triazolo[1,5-a]pyrimidin-6-yl}amino)phenyl]-2,2,2-trifluoroethyl]-N-methyl-1,1-dioxo-1λ^6-thiane-4-carboxamide]	> 1 µM	> 1 µM	
CO[C@@H](C)c1c(Nc2ccc([C@H](N(C)C(=O)C3CCC3)C(F)(F)F)c(C)c2)cnc2nc(Cl)nn12 [Compound 1.28, N-[(1S)-1-[4-({2-chloro-7-[(1S)-1-methoxyethyl]-[1,2,4]triazolo[1,5-a]pyrimidin-6-yl}amino)-2-methylphenyl]-2,2,2-trifluoroethyl]-N-methylcyclobutanecarboxamide]	> 1 µM	> 1 µM	
CO[C@@H](C)c1c(Nc2ccc([C@H](N(C)C(=O)C3CC3)C(F)(F)F)c(C)c2)cnc2nc(Cl)nn12 [Compound 1.29, N-[(1S)-1-[4-({2-chloro-7-[(1S)-1-methoxyethyl]-[1,2,4]triazolo[1,5-a]pyrimidin-6-yl}amino)-2-methylphenyl]-2,2,2-trifluoroethyl]-N-methylcyclopropanecarboxamide]	> 1 µM	> 1 µM	
CO[C@@H](C)c1c(Nc2ccc([C@H](N(C)C(=O)C3CCS(=O)(=O)CC3)C(F)(F)F)c(C)c2)cnc2nc(Cl)nn12 [Compound 1.30, N-[(1S)-1-[4-({2-chloro-7-[(1S)-1-methoxyethyl]-[1,2,4]triazolo[1,5-a]pyrimidin-6-yl}amino)-2-methylphenyl]-2,2,2-trifluoroethyl]-N-methyl-1,1-dioxo-1λ^6-thiane-4-carboxamide]	> 1 µM	0.1 to 1 µM	
CO[C@@H](C)c1c(Nc2ccc([C@H](N(C)C(=O)C3CCC3)C(F)(F)F)cc2C)cnc2nc(Cl)nn12 [Compound 1.31, N-[(1S)-1-[4-({2-chloro-7-[(1S)-1-methoxyethyl]-[1,2,4]triazolo[1,5-a]pyrimidin-6-yl}amino)-3-methylphenyl]-2,2,2-trifluoroethyl]-N-methylcyclobutanecarboxamide]	> 1 µM	> 1 µM	
CO[C@@H](C)c1c(Nc2ccc([C@H](N(C)C(=O)C3CC3)C(F)(F)F)cc2C)cnc2nc(Cl)nn12 [Compound 1.32, N-[(1S)-1-[4-({2-chloro-7-[(1S)-1-methoxyethyl]-[1,2,4]triazolo[1,5-a]pyrimidin-6-yl}amino)-3-methylphenyl]-2,2,2-trifluoroethyl]-N-methylcyclopropanecarboxamide]	> 1 µM	0.1 to 1 µM	
CO[C@@H](C)c1c(Nc2ccc([C@H](N(C)C(=O)C3CCS(=O)(=O)CC3)C(F)(F)F)cc2C)cnc2nc(Cl)nn12 [Compound 1.33, N-[(1S)-1-[4-({2-chloro-7-[(1S)-1-methoxyethyl]-[1,2,4]triazolo[1,5-a]pyrimidin-6-yl}amino)-3-methylphenyl]-2,2,2-trifluoroethyl]-N-methyl-1,1-dioxo-1λ^6-thiane-4-carboxamide]	> 1 µM	0.1 to 1 µM	
CO[C@@H](C)c1c(Nc2ccc([C@H](N(C)C(=O)C3CCNCC3)C(F)(F)F)cc2)cnc2nc(Cl)nn12 [Compound 2.1, N—((S)-1-(4-((2-chloro-7-((S)-1-methoxyethyl)-[1,2,4]triazolo[1,5-a]pyrimidin-6-yl)amino)phenyl)-2,2,2-trifluoroethyl)-N-methylpiperidine-4-carboxamide trifluoroacetate]		0.1 to 1 µM	0.1 to 1 µM
CO[C@@H](C)c1c(Nc2ccc([C@H](N(C)C(=O)C3CCCNC3)C(F)(F)F)cc2)cnc2nc(Cl)nn12 (stereo partly drawn) [Compound 2.2, N-[(1S)-1-[4-({2-chloro-7-[(1S)-1-methoxyethyl]-[1,2,4]triazolo[1,5-a]pyrimidin-6-yl}amino)phenyl]-2,2,2-trifluoroethyl]-N-methylpiperidine-3-carboxamide]	> 1 µM	0.1 to 1 µM	
CO[C@@H](C)c1c(Nc2ccc([C@H](N(C)C(=O)C3CCNC3)C(F)(F)F)cc2)cnc2nc(Cl)nn12 (stereo partly drawn) [Compound 2.3, N—((S)-1-(4-((2-chloro-7-((S)-1-methoxyethyl)-[1,2,4]triazolo[1,5-a]pyrimidin-6-yl)amino)phenyl)-2,2,2-trifluoroethyl)-N-methylpyrrolidine-3-carboxamide hydrochloride]	0.1 to 1 µM	0.1 to 1 µM	
CO[C@@H](C)c1c(Nc2ccc([C@H](N(C)C(=O)C3CCC(CN)CC3)C(F)(F)F)cc2)cnc2nc(Cl)nn12 (stereo partly drawn) [Compound 2.4, 4-(aminomethyl)-N-[(1S)-1-[4-({2-chloro-7-[(1S)-1-methoxyethyl]-[1,2,4]triazolo[1,5-a]pyrimidin-6-yl}amino)phenyl]-2,2,2-trifluoroethyl]-N-methylcyclohexane-1-carboxamide; Formic Acid]	0.1 to 1 µM	< 0.1 µM	
CO[C@@H](C)c1c(Nc2ccc([C@H](N(C)C(=O)C3CCN(S(=O)(=O)C(C)C)CC3)C(F)(F)F)cc2)cnc2nc(Cl)nn12 [Compound 3.2, N-[(1S)-1-[4-({2-chloro-7-[(1S)-1-methoxyethyl]-[1,2,4]triazolo[1,5-a]pyrimidin-6-yl}amino)phenyl]-2,2,2-trifluoroethyl]-N-methyl-1-(propane-2-sulfonyl)piperidine-4-carboxamide]	0.1 to 1 µM	< 0.1 µM	
COC(=O)N1CCC(C(=O)N(C)[C@@H](c2ccc(Nc3cnc4nc(Cl)nn4c3[C@H](C)OC)cc2)C(F)(F)F)CC1 [Compound 3.3, methyl 4-{[(1S)-1-[4-({2-chloro-7-[(1S)-1-methoxyethyl]-[1,2,4]triazolo[1,5-a]pyrimidin-6-yl}amino)phenyl]-2,2,2-trifluoroethyl](methyl)carbamoyl}piperidine-1-carboxylate]	0.1 to 1 µM	< 0.1 µM	
CO[C@@H](C)c1c(Nc2ccc([C@H](N(C)C(=O)C3CCCN(C(C)=O)C3)C(F)(F)F)cc2)cnc2nc(Cl)nn12 (stereo partly drawn) [Compound 3.5, 1-acetyl-N-[(1S)-1-[4-({2-chloro-7-[(1S)-1-methoxyethyl]-[1,2,4]triazolo[1,5-a]pyrimidin-6-yl}amino)phenyl]-2,2,2-trifluoroethyl]-N-methylpiperidine-3-carboxamide]	0.1 to 1 µM	< 0.1 µM	
CNC(=O)N1CCCC(C(=O)N(C)[C@@H](c2ccc(Nc3cnc4nc(Cl)nn4c3[C@H](C)OC)cc2)C(F)(F)F)C1 (stereo partly drawn) [Compound 3.6, N3-[(1S)-1-[4-({2-chloro-7-[(1S)-1-methoxyethyl]-[1,2,4]triazolo[1,5-a]pyrimidin-6-yl}amino)phenyl]-2,2,2-trifluoroethyl]-N1,N3-dimethylpiperidine 1,3-dicarboxamide]	> 1 µM	0.1 to 1 µM	
